Source: patent US20250134853A1, “COMPOUNDS AND METHODS FOR USING GALLOYLATED POLYPHENOLS TO TREAT DISEASES MEDIATED BY THIOL ISOMERASES” (Beth Israel Deaconess Medical Center, Inc., priority 2023, published 2025)
“Also recorded” adds a separate entry of the source.

Experiments:
PDI [1] = target: T1, PDI (Homo sapiens, UniProt P07237); experiment: Di-eosin-GSSG disulfide reductase assay, PDI; type: biochemical; settings: for IC50: Table 1, IC50 curves on PDI activity (FIGS. 13B-E, 17A-E), read-out: Relative PDI inhibition
T1 construct: FLAG; made in house; host or cells: Escherichia coli Origami B (DE3)
Protocol: (§1) Di-eosin-GSSG disulfide reductase assay. The probe di-eosin glutathione disulfide, di-eosin-GSSG, was prepared by incubating 100 μM of GSSG with 1 mM of eosin isothiocyanate in 100 mM potassium phosphate containing 2 mM EDTA (pH 7.4), at 25° C. overnight in the dark. The mixture was passed down a PD-10 column and different fractions were collected. A fold change of fluorescence (Ex: 520 nm, Em: 550 nm) was calculated using samples subjected to either vehicle or 20 mM of DTT. Any fraction with a fold change >5 was kept. Using a stock of 10 mM eosin isothiocyanate, a standard curve was generated and concentration of samples were determined accordingly. Di-eosin-GSSG cleavage of purified thiol isomerases and PDI domains was monitored in a 96-well fluorescence plate format. PDI, CGXC-PDI variants, ERp5, ERp57, ERp46 and PDI domains were assayed at 50 nM in the presence or absence of the indicated small molecules. The assay included a thiol isomerase assay buffer (39 mM KH2PO4, 61 mM K2HPO4, 2 mM EDTA, 5 M DTT, pH 7.4) and 150 nM of the di-eosin-GSSG probe. The increase in fluorescence was determined for 60 min by excitation at 520 nm and emission at 550 nm in a Synergy Biotek 4. The reduction of 150 nM di-eosin-GSSG by 5 μM DTT in the presence or absence of mentioned small molecule or proteins served as a negative control.

PDI [2] = target: T1, PDI; experiment: Insulin reductase assay; type: biochemical; settings: 20 μM
Protocol: Insulin reductase assay. Insulin was prepared by mixing 12.5 mg/mL insulin in 50 mM Tris-HCl, pH 8. 1 M HCl was carefully added to drop the pH to 2.0 for solution clarification. Once the solution clarifies, 1 M NaOH was added to rapidly adjust the pH back to 8.0. The solution was then adjusted to 1.5 mM (10 mg/mL) with 50 mM Tris-HCl, aliquoted and stored in −20° C. until use. 2× concentrations of thiol isomerases were prepared (final concentrations as indicated in each assay) and mixed with 1.2 mM DTT (final 0.3 mM) and 0.4 mM insulin (final 0.1 mM) using a thiol isomerase activity assay buffer. Insulin precipitation from enzyme-mediated reduction was assayed in 96-well clear bottom plates at 650 nm absorption.

[3] = test system: recombinant PDI, ERp57, and ERp5; experiment: Di-eosin-GSSG assay, thiol isomerases at 20 μM compound; type: biochemical; settings: 15 minute incubation
[4] = test system: PDI domain fragments (a, a′, ab, abb′, b′xa′); experiment: Di-eosin-GSSG assay on isolated PDI domain fragments; type: biochemical; settings: 20 μM
Protocol: as §1

SARS-CoV-2 = settings: cited from earlier work
SARS-CoV-2 M^pro [5] = target: T2, SARS-CoV-2 M^pro (Severe acute respiratory syndrome coronavirus 2, UniProt P0DTD1); settings: cited from earlier work
platelets = settings: cited from earlier work
SARS-CoV-2 M^pro [6] = target: T2, SARS-CoV-2 M^pro; settings: literature values (Table 2); read-out: SARS-CoV-2 M^pro inhibition; cited from earlier work

T1 sequence (P07237 18-508): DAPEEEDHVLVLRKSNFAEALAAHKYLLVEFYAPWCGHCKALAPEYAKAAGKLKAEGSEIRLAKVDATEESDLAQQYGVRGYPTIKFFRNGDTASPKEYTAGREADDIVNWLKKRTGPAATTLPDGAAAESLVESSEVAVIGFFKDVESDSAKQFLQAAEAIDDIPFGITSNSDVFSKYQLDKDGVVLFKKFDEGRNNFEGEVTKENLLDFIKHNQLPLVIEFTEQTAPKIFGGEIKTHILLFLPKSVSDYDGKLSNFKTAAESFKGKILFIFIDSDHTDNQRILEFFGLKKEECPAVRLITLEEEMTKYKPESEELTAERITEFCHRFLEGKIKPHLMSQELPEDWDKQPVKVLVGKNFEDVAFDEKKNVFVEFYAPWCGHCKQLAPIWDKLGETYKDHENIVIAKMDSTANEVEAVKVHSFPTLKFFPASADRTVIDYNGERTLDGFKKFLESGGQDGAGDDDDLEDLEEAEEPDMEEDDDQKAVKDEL

Compound	IC50 (PDI [1]) [µM]	inhibition of the ability of PDI to reduce insulin (PDI [2])	inhibition of thiol isomerases (PDI, ERp57, ERp5) in words [3]	inhibition of isolated a′ domain cleavage of di-eosin-GSSG [4]	IC50 (SARS-CoV-2; Vero Cells, read-out: Inhibition of viral replication IC50) [µM]	inhibition of SARS-CoV-2 / infection (in words) (SARS-CoV-2)	Modeling shows gallic acid interaction with His41 or Glu166 (SARS-CoV-2 M^pro [5])	antiplatelet activities (platelets)	IC50 (SARS-CoV-2 M^pro [6]) [µM]	inhibition of PDI (in words) (PDI [1])	Inhibition of viral replication (cell system in which shown) (SARS-CoV-2)	hydrogen bonding with M^pro in published molecular dynamic simulations (SARS-CoV-2 M^pro [5])
1,2,3,4,6-pentagalloylglucose [Pentagalloyl-glucose]	2.9	inhibited the ability of PDI to reduce insulin	potently inhibited all thiol isomerases tested	inhibited the ability of isolated a′ domain to cleave di-eosin-GSSG	15	inhibits SARS-CoV-2 viral infection in culture	occludes His41;; also recorded: reacts with Glu166	have antiplatelet activities	25	–	–	–
O=C(OC[C@H]1O[C@@H](OC(=O)c2cc(O)c(O)c(OC(=O)c3cc(O)c(O)c(O)c3)c2)[C@H](OC(=O)c2cc(O)c(O)c(OC(=O)c3cc(O)c(O)c(O)c3)c2)[C@@H](OC(=O)c2cc(O)c(O)c(OC(=O)c3cc(O)c(O)c(O)c3)c2)[C@@H]1OC(=O)c1cc(O)c(O)c(OC(=O)c2cc(O)c(O)c(O)c2)c1)c1cc(O)c(O)c(OC(=O)c2cc(O)c(O)c(O)c2)c1 [Tannic acid]	8.5	inhibited the ability of PDI to reduce insulin	potently inhibited all thiol isomerases tested	inhibited the ability of isolated a′ domain to cleave di-eosin-GSSG	–	blocks SARS-CoV-2 virus infection in 293T cells expressing hACE2	His41; Glu166	have antiplatelet activities	–	inhibit PDI	293T-hACE2 and NIC-H460	hydrogen bonding of TA with M^pro Cys145
